Results: patent US7439051B2, “Process for utilizing epitopes recognized by natural antibodies” (Mirus Bio Corporation, priority 1999, dated 2008)

T1: CRP (Rattus norvegicus, UniProt P48199)
T1 construct: from tissue; host or cells: rat serum
T1 sequence (P48199 20-230): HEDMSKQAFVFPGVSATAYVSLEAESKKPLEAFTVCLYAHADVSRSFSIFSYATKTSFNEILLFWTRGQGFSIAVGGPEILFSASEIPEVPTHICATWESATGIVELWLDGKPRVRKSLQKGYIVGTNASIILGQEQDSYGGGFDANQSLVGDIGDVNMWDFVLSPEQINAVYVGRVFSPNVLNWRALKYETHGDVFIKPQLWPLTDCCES

B1: Plasminogen: plasminogen bound by Lysine-Sepharose, eluted by ε-aminocaproic acid (protein, UniProt P00747 20-810, looked up)
Plasminogen: EPLDDYVNTQGASLFSVTKKQLGAGSIEECAAKCEEDEEFTCRAFQYHSKEQQCVIMAENRKSSIIIRMRDVVLFEKKVYLSECKTGNGKNYRGTMSKTKNGITCQKWSSTSPHRPRFSPATHPSEGLEENYCRNPDNDPQGPWCYTTDPEKRYDYCDILECEEECMHCSGENYDGKISKTMSGLECQAWDSQSPHAHGYIPSKFPNKNLKKNYCRNPDRELRPWCFTTDPNKRWELCDIPRCTTPPPSSGPTYQCLKGTGENYRGNVAVTVSGHTCQHWSAQTPHTHNRTPENFPCKNLDENYCRNPDGKRAPWCHTTNSQVRWEYCKIPSCDSSPVSTEQLAPTAPPELTPVVQDCYHGDGQSYRGTSSTTTTGKKCQSWSSMTPHRHQKTPENYPNAGLTMNYCRNPDADKGPWCFTTDPSVRWEYCNLKKCSGTEASVVAPPPVVLLPDVETPSEEDCMFGNGKGYRGKRATTVTGTPCQDWAAQEPHRHSIFTPETNPRAGLEKNYCRNPDGDVGGPWCYTTNPRKLYDYCDVPQCAAPSFDCGKPQVEPKKCPGRVVGGCVAHPHSWPWQVSLRTRFGMHFCGGTLISPEWVLTAAHCLEKSPRPSSYKVILGAHQEVNLEPHVQEIEVSRLFLEPTRKDIALLKLSSPAVITDKVIPACLPSPNYVVADRTECFITGWGETQGTFGAGLLKEAQLPVIENKVCNRYEFLNGRVQSTELCAGHLAGGTDSCQGDSGGPLVCFEKDKYILQGVTSWGLGCARPNKPGVYVRVSRFVTWIEGVMRNN

What was measured:
CRP = target: T1, CRP; assay: Reduction by PC of K+/R+ phage protection in vitro; assay type: biochemical
Source text: PC reduced the protection of K+/R+ phage both in vivo and in vitro, thereby confirming the role of CRP as a K+/R+ protection agent (FIG. 1B and Table 2K, respectively). […] Direct interaction between CRP and K+/R+ phage was shown with the phage immobilized on Affi-Gel 15. Immobilized K+/R+ phage, but not K−/R− phage, bound a substantial amount of serum protein that was eluted from the column by ε-ACA (FIG. 2C). […] The identification of this protein as CRP was confirmed by the Western blot analysis (FIG. 2B, lanes 2 and 3). No binding of CRP to K−/R− phage or a mock column was detected. […] The presence of multiple CRP molecules on surface of K+/R+ phage could provide steric protection against C-mediated inactivation. The role of CRP in protecting K+/R+ phage against C is consistent with the lack of protection for K+/R+ phage in human serum which normally contains little CRP.

[1] = Phage survival in rat serum in vitro (plaque forming assay); assay type: in vitro ADME; conditions: protein eluted from Lysine-Sepharose by ε-ACA; data not shown
Protocol: Serum preparation. Rat serum was prepared by clotting blood on ice.

Row | Molecule | IC50 (CRP; K+19/16 clone) [µM] | IC50 (CRP; R+19/14 clone) [µM] | protective effect on phage [1]
1 | C[N+](C)(C)CCOP(=O)(O)O [PC, phosphorylcholine] | ~50 | ~50 | –
2 | B1 | – | – | no protective effect
